From article PMC3269786 (Neuron, 2012)

Assays:
GHSR1a + DRD2 = GHSR1a + DRD2 (Homo sapiens, UniProt P14416+Q92847); format: cell-based
humans = settings: ref Korner et al., 2003; cited from earlier work
[1] = tested on: mice (ghsr+/+, ghsr−/−, ghrelin+/+, ghrelin−/−); experiment: Food intake experiments in mice; format: in vivo, mouse; settings: for food intake compared to vehicle: 0.5 mg/kg i.p.
[2] = tested on: primary cultures of hypothalamic neurons; experiment: Fluo-4 Ca2+ mobilization in primary hypothalamic neurons; format: cell-based, mouse; settings: quinpirole 10 µM; ghrelin 100 nM after washing
[3] = target: GHSR1a and DRD2 co-expressed in SH-SY5Y cells (SH-GHSR1a) (Homo sapiens, UniProt P14416+Q92847); format: cell-based; settings: quinpirole 10 µM; pretreatment 5 min
SNAP-M213K-GHSR1a = SNAP-M213K-GHSR1a (UniProt Q92847); experiment: FRET or BRET
SNAP-F279L-GHSR1a = SNAP-F279L-GHSR1a (UniProt Q92847); experiment: FRET or BRET
[4] = target: SNAP-GHSR1a (growth hormone secretagogue receptor / ghrelin receptor with a SNAP-tag at the N-terminus) (UniProt Q92847); experiment: FRET or BRET
rats = settings: 6 day central infusion, ref Petersen et al., 2009; cited from earlier work
SNAP-GHSR1a = SNAP-GHSR1a (Homo sapiens, UniProt Q92847); experiment: Tr-FRET red-ghrelin binding assay in HEK293 cells expressing SNAP-GHSR1a
SNAP-GHSR1a, sequence (Q92847 whole entry): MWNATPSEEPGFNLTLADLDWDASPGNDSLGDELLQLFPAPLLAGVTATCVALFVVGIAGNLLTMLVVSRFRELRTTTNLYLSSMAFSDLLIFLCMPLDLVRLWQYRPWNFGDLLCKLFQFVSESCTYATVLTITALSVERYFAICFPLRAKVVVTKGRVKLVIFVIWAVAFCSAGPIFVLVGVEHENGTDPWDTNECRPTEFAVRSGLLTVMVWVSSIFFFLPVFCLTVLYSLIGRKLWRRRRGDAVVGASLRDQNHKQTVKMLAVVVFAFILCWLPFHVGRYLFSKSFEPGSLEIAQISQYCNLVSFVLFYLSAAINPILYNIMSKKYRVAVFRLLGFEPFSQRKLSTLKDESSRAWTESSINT

GHSR1a + DRD2, sequence (Q92847 whole entry): as above
GHSR1a + DRD2, sequence (P14416 whole entry): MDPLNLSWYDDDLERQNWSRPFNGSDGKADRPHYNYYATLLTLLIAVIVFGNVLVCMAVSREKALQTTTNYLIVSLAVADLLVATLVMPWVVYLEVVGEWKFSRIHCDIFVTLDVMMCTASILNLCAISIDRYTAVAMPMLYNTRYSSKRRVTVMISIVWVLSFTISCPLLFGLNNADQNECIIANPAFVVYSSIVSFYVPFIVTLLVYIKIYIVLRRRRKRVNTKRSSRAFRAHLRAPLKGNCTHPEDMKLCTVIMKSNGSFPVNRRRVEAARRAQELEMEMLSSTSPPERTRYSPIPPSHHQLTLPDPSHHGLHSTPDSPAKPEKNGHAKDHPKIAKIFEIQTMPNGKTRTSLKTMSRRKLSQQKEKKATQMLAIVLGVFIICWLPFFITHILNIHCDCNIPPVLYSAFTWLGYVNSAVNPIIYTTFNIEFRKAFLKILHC
HA-CLIP-DRD2, sequence (P14416 whole entry): as above
SNAP-GHSR1a (growth hormone secretagogue receptor / ghrelin receptor with a SNAP-tag at the N-terminus), sequence (Q92847 whole entry, the tested form may be a part): as the sequence (Q92847 whole entry) above
GHSR1a and DRD2 co-expressed in SH-SY5Y cells (SH-GHSR1a), sequence (Q92847 whole entry): as above
GHSR1a and DRD2 co-expressed in SH-SY5Y cells (SH-GHSR1a), sequence (P14416 whole entry): as the sequence (P14416 whole entry) above
SNAP-F279L-GHSR1a, sequence (Q92847 whole entry F279L): as the sequence (Q92847 whole entry) above, with F279L counted along it
SNAP-M213K-GHSR1a, sequence (Q92847 whole entry M213K): as the sequence (Q92847 whole entry) above, with M213K counted along it

NCCOB(c1ccccc1)c1ccccc1 [2-aminoethoxydiphenyl borate]
effect on dopamine-induced Ca2+ signaling (GHSR1a + DRD2): blocked

CN1CCc2cc(Cl)c(O)cc2[C@@H](c2ccccc2)C1 [SCH23390]
effect on dopamine-induced Ca2+ signaling (GHSR1a + DRD2): ineffective

Oc1cc2c(c(Cl)c1O)CCNCC2c1ccccc1 (stereo not drawn) [SKF81297]
effect of preincubation on ghrelin-induced Ca2+ response (GHSR1a + DRD2; 30 min preincubation, ghrelin 100 nM): fails to inhibit

C=CCN1C[C@H](C(=O)N(CCCN(C)C)C(=O)NCC)C[C@@H]2c3cccc4[nH]cc(c34)C[C@H]21 [cabergoline]
agonist-induced increase of [Ca2+]i (GHSR1a + DRD2; cells co-expressing GHSR1a + DRD2): dose-dependent mobilization of Ca^2+ | body weight in treated humans (humans): weight loss | food intake compared to vehicle ([1]; ghrelin+/+ and ghrelin−/− mice): significantly reduced food intake irrespective of genotype | food intake compared to vehicle ([1]; ghsr+/+ mice, within 2 h): markedly reduced | food intake compared to vehicle ([1]; ghsr−/− mice): unaffected | food intake ([1]; mice, cabergoline 0.5 mg/kg and 2 mg/kg): dose dependent suppression of food intake

CCCCCCCC(=O)OC[C@H](NC(=O)[C@H](CO)NC(=O)CN)C(=O)N[C@@H](Cc1ccccc1)C(=O)N[C@@H](CC(C)C)C(=O)N[C@@H](CO)C(=O)N1CCC[C@H]1C(=O)N[C@@H](CCC(=O)O)C(=O)N[C@@H](Cc1c[nH]cn1)C(=O)N[C@@H](CCC(N)=O)C(=O)N[C@@H](CCCNC(=N)N)C(=O)N[C@H](C(=O)N[C@@H](CCC(N)=O)C(=O)N[C@@H](CCC(N)=O)C(=O)N[C@@H](CCCNC(=N)N)C(=O)N[C@@H](CCCCN)C(=O)N[C@@H](CCC(=O)O)C(=O)N[C@@H](CO)C(=O)N[C@@H](CCCCN)C(=O)N[C@@H](CCCCN)C(=O)N1CCC[C@H]1C(=O)N1CCC[C@H]1C(=O)N[C@@H](C)C(=O)N[C@@H](CCCCN)C(=O)N[C@@H](CC(C)C)C(=O)N[C@@H](CCC(N)=O)C(=O)N1CCC[C@H]1C(=O)N[C@@H](CCCNC(=N)N)C(=O)O)C(C)C [ghrelin]
Ca2+ response in primary hypothalamic neurons [2]: immediate Ca^2+ response

CCN1CCC[C@H]1CNC(=O)c1c(O)c(Cl)cc(Cl)c1OC [raclopride]
effect on dopamine-induced Ca2+ signaling (GHSR1a + DRD2): dose-dependently inhibited | effect on quinpirole-induced Ca2+ signal [3]: Attenuation of the Ca^2+ signal

CCN1CCCC1CNC(=O)c1cc(S(N)(=O)=O)ccc1OC (stereo not drawn) [sulpiride]
effect on dopamine-induced Ca2+ signaling (GHSR1a + DRD2): dose-dependently inhibited | effect on ghrelin-induced Ca2+ mobilization (GHSR1a + DRD2; GHSR1a+DRD2 cells, ghrelin 100 nM): partially inhibited

HA-CLIP-DRD2 (from UniProt P14416 1-443) (receptor)
FRET50 (SNAP-M213K-GHSR1a): 0.79 | FRET50 (SNAP-F279L-GHSR1a): 0.49 | FRET50 [4]: 0.086

JMV2959
effect on cabergoline-induced suppression of food intake ([1]; ghsr+/+ mice, JMV2959 0.2 mg/kg i.p. 30 min before cabergoline 0.5 mg/kg): prevented | effect on food intake in cabergoline treated mice ([1]; ghsr−/− mice, JMV2959 0.2 mg/kg i.p. 30 min before cabergoline 0.5 mg/kg): unaffected

[D-Arg1,D-Phe5,D-Trp7,9,Leu11]-substance P
food intake and weight gain (rats): modest reductions in food intake and weight gain

des-acyl ghrelin
inhibition of red ghrelin binding (SNAP-GHSR1a): ineffective
